Target: human σ1 receptor (Homo sapiens (Human), UniProt Q99720)
Assay: Human σ1 receptor radioligand assay
Format: binding
Settings: transfected HEK-293 membranes, [3H](+)-pentazocine radioligand
Description: Human σ1 Receptor Radioligand Assay
To investigate binding properties of test compounds to human σ1 receptor, transfected HEK-293 membranes and [^3H](+)-pentazocine (Perkin Elmer, NET-1056), as the radioligand, were used. The assay was carried out with 7 μg of membrane suspension, 5 nM of [^3H](+)-pentazocine in either absence or presence of either buffer or 10 μM Haloperidol for total and non-specific binding, respectively. Binding buffer contained Tris-HCl 50 mM at pH 8. Plates were incubated at 37° C. for 120 minutes. After the incubation period, the reaction mix was then transferred to MultiScreen HTS, FC plates (Millipore), filtered and plates were washed 3 times with ice-cold 10 mM Tris-HCL (pH7.4). Filters were dried and counted at approximately 40% efficiency in a MicroBeta scintillation counter (Perkin-Elmer) using EcoScint liquid scintillation cocktail

Chain of human σ1 receptor (Q99720 whole entry): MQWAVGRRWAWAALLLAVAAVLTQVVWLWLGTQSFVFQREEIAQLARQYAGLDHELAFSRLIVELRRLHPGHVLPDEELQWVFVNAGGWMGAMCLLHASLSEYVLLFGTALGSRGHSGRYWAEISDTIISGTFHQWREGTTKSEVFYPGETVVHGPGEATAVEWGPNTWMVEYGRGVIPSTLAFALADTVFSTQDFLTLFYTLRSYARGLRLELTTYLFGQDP

Compound	Ki
CCN1CC2(CCCN(CCC(C)C)C2)OC2(CC2)C1=O (stereo not drawn) [Example 1, 12-Ethyl-7-isopentyl-4-oxa-7,12-diazadispiro[2.1.5.3]tridecan-13-one]	≥ 0.5 µM
CCN1CC2(CCCN(CCc3ccccc3)C2)OC2(CC2)C1=O (stereo not drawn) [Example 2, 12-Ethyl-7-phenethyl-4-oxa-7,12-diazadispiro[2.1.5.3]tridecan-13-one]	≥ 0.5 µM
CCN1CC2(CCCN(CCc3ccccc3)CC2)OC2(CC2)C1=O (stereo not drawn) [Example 3, 13-ethyl-8-phenethyl-4-oxa-8,13-diazadispiro[2.1.6.3]tetradecan-14-one]	< 0.1 µM
CCN1CC2(CCCN(CCC(C)C)CC2)OC2(CC2)C1=O (stereo not drawn) [Example 4, 13-ethyl-8-isopentyl-4-oxa-8,13-diazadispiro[2.1.6.3]tetradecan-14-one]	< 0.1 µM
CCN1CC2(CN(CCc3ccccc3)C2)OC2(CC2)C1=O [Example 5]	< 0.5 µM
CCN1CC2(CN(CCC(C)C)C2)OC2(CC2)C1=O [Example 6, 10-ethyl-7-isopentyl-4-oxa-7,10-diazadispiro[2.1.3.3]undecan-11-one]	< 0.1 µM
O=C1N(c2ccccc2)CC2(CCCN(CCc3ccccc3)C2)OC12CC2 (stereo not drawn) [Example 7, 7-phenethyl-12-phenyl-4-oxa-7,12-diazadispiro[2.1.5.3]tridecan-13-one]	< 0.5 µM
CC(C)CCN1CCCC2(C1)CN(c1ccccc1)C(=O)C1(CC1)O2 (stereo not drawn) [Example 8, 7-isopentyl-12-phenyl-4-oxa-7,12-diazadispiro[2.1.5.3]tridecan-13-one]	< 0.5 µM
O=C1N(c2ccccc2)CC2(CCCN(CCc3ccccc3)CC2)OC12CC2 (stereo not drawn) [Example 9, 8-phenethyl-13-phenyl-4-oxa-8,13-diazadispiro[2.1.6.3]tetradecan-14-one]	< 0.1 µM
CC(C)CCN1CCCC2(CC1)CN(c1ccccc1)C(=O)C1(CC1)O2 (stereo not drawn) [Example 10, 8-isopentyl-13-phenyl-4-oxa-8,13-diazadispiro[2.1.6.3]tetradecan-14-one]	< 0.1 µM
CCN1CC2(CCCN(Cc3ccccc3)C2)OC2(CC2)C1=O (stereo not drawn) [Example 11, 7-Benzyl-12-ethyl-4-oxa-7,12-diazadispiro[2.1.5.3]tridecan-13-one]	≥ 0.5 µM
CCN1CC2(CCCN(Cc3ccccc3)CC2)OC2(CC2)C1=O (stereo not drawn) [Example 12, 8-benzyl-13-ethyl-4-oxa-8,13-diazadispiro[2.1.6.3]tetradecan-14-one]	< 0.1 µM
CCN1CC2(CN(Cc3ccccc3)C2)OC2(CC2)C1=O [Example 13, 7-benzyl-10-ethyl-4-oxa-7,10-diazadispiro[2.1.3.3]undecan-11-one]	≥ 0.5 µM
O=C1N(c2ccccc2)CC2(CCCN(Cc3ccccc3)CC2)OC12CC2 (stereo not drawn) [Example 14, 8-benzyl-13-phenyl-4-oxa-8,13-diazadispiro[2.1.6.3]tetradecan-14-one]	< 0.1 µM
O=C1N(c2ccccc2)CC2(CCCN(Cc3ccccc3)C2)OC12CC2 (stereo not drawn) [Example 15, 7-benzyl-12-phenyl-4-oxa-7,12-diazadispiro[2.1.5.3]tridecan-13-one]	≥ 0.5 µM
CCN1CC2(CCCN(CCc3ccccc3)CC2)OC2(CC2)C1 (stereo not drawn) [Example 16, 13-Ethyl-8-phenethyl-4-oxa-8,13-diazadispiro[2.1.6.3]tetradecane]	< 0.1 µM
CCN1CC2(CC2)OC2(CCCN(Cc3ccccc3)C2)C1 (stereo not drawn) [Example 17, 7-benzyl-12-ethyl-4-oxa-7,12-diazadispiro[2.1.5.3]tridecane]	≥ 0.5 µM
CCN1CC2(CC2)OC2(CCCN(CCc3ccccc3)C2)C1 (stereo not drawn) [Example 18]	≥ 0.5 µM
c1ccc(CCN2CCCC3(C2)CN(c2ccccc2)CC2(CC2)O3)cc1 (stereo not drawn) [Example 19, 7-phenethyl-12-phenyl-4-oxa-7,12-diazadispiro[2.1.5.3]tridecane]	< 0.1 µM
CC(C)CCN1CCCC2(C1)CN(c1ccccc1)CC1(CC1)O2 (stereo not drawn) [Example 20, 7-isopentyl-12-phenyl-4-oxa-7,12-diazadispiro[2.1.5.3]tridecane]	< 0.1 µM
c1ccc(CN2CCCC3(CC2)CN(c2ccccc2)CC2(CC2)O3)cc1 (stereo not drawn) [Example 21, 8-benzyl-13-phenyl-4-oxa-8,13-diazadispiro[2.1.6.3]tetradecane]	< 0.1 µM

Source: patent US10689398B2, “OXA-Diazaspiro compounds having activity against pain” (ESTEVE PHARMACEUTICALS, S.A., priority 2015, dated 2020)
